The source of these data is US8163756B2 (priority 2004, dated 2012).

Each structure is given as a SMILES string.

Holding throughout (assay type): biochemical
In test [1] the target is T1, Abl kinase (Homo sapiens, UniProt P00519).
T1 sequence (P00519 229-512): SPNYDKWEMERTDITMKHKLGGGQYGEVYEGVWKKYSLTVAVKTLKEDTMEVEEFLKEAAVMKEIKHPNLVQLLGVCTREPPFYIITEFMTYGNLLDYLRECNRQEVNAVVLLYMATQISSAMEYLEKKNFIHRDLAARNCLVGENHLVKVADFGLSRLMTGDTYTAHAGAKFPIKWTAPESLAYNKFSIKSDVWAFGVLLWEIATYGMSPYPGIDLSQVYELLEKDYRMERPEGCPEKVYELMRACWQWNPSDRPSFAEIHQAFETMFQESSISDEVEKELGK
Briefly: Abl kinase assay A2 (as A1, 1.1 nM enzyme, 2 h pre-incubation, 0.5 mM ATP). The method, then: (§1) IC50 values were calculated from a series of percent inhibition values determined at a range of inhibitor concentrations using software routines as implemented in the GraphPad Prism software package.

The target in test [2] is T2, KDR kinase (Homo sapiens, UniProt P35968, DEL940-989/E990V). Briefly: KDR kinase assay K2 (as K1, 2.1 nM enzyme, 2 h pre-incubation, 1.0 mM ATP). To be noted: Method K2; read-out: KDR Data (IC50). The method, then:
as §1

In test [3] the target is T3, B-Raf(V599E) kinase (Homo sapiens, UniProt P15056, V600E). Briefly: B-Raf(V599E) kinase assay B1 (construct 1, MEK1 substrate, coupled spectrophotometric). As to the method: (§2) The test compounds were incubated with the reaction mixtureat 30° C. for 2 h. […] The reaction rate was calculated using the […] time frame. […] IC50 values were calculated from a series of percent inhibition values determined at a range of inhibitor concentrations using software routines as implemented in the GraphPad Prism software package.
Target sequence in this assay (P15056 with tags, fused parts or gaps V600E): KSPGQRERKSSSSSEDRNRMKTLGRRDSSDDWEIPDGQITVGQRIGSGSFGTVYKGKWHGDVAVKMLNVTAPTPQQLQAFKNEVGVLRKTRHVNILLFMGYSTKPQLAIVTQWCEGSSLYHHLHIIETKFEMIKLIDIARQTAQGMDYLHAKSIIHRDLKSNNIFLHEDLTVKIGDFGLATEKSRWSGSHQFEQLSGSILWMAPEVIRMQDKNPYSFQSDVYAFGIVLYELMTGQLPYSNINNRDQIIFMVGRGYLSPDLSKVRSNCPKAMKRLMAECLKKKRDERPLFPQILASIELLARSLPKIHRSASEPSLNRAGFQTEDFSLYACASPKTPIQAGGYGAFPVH

The target of test [4] is phosphorylated p-38-alpha kinase (Homo sapiens, UniProt Q16539). The test is described as follows: P-38 alpha kinase assay P1 (coupled spectrophotometric, 2 h pre-incubation). To be noted: method P1 (2 h pre-incubation); read-out: P-38 Data.
phosphorylated p-38-alpha kinase, sequence (Q16539 1-360 isoform Q16539-2): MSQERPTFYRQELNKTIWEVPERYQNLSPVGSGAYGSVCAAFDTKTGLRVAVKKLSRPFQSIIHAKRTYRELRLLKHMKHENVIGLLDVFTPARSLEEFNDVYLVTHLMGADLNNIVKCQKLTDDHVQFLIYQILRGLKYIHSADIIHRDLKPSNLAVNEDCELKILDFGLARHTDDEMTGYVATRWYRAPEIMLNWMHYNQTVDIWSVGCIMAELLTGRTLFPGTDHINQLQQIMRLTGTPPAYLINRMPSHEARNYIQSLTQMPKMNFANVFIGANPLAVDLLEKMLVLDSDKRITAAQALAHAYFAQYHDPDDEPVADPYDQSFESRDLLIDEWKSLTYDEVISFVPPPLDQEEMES
Test [5] has as its target T3, B-Raf(V599E) kinase. The test is described as follows: B-Raf(V599E) kinase assay B2 (construct 2 at 2 nM, 1 h pre-incubation). As to the method: as §2
Same as assay B1 except that (1) construct 2 was employed at a nominal concentration of 2 nM (2) the reaction was pre-incubated at 30° C. for 1 h prior to initiation with ATP (3) a reading time frame of 0.5 h to 1.5 h.
Target sequence in this assay (P15056 433-726 V600E): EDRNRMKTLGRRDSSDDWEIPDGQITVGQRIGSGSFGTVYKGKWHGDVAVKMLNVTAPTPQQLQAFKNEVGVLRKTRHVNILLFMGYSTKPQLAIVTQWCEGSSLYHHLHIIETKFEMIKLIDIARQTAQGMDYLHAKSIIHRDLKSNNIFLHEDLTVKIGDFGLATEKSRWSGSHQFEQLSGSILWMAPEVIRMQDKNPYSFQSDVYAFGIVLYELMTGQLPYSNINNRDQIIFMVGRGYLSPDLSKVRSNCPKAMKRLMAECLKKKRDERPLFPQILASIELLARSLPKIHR

Test [6] concerns the target T1, Abl kinase. The test is described as follows: Abl kinase assay A1 (pyruvate kinase/lactate dehydrogenase coupled, spectrophotometric). To be noted: Method A1; read-out: Abl Data (IC50). The method, then:
as §1

Test [7] concerns the target T2, KDR kinase. The test is described as follows: KDR kinase assay K1 (pyruvate kinase/lactate dehydrogenase coupled, spectrophotometric). To be noted: Method K1; read-out: KDR Data (IC50). The method, then: as §1
[8] abbreviates: Method A2, read-out: Abl Data (IC50).

T2 sequence (P35968 with tags, fused parts or gaps DEL940-989/E990V): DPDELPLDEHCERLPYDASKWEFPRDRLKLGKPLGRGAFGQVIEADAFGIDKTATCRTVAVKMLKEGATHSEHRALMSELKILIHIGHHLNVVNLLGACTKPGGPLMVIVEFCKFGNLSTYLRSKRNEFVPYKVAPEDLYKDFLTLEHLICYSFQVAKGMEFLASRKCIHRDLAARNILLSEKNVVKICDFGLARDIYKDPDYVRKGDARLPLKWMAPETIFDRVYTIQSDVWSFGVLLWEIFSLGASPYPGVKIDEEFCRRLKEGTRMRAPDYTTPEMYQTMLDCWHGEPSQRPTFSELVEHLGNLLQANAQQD

Regarding `CC(C)(C)c1cc(NC(=O)Nc2cccc(Oc3cccnc3)c2)n(-c2ccc3c(c2)CCNC3)n1` [Example 141, 1-(3-t-butyl-1-(1,2,3,4-tetrahydro-isoquinolin-6-yl)-1H-pyrazol-5-yl)-3-(3-(pyridin-3-yloxy)phenyl)urea], the IC50 stood at 1.5 nM on Abl kinase [1], 8.5 nM on KDR kinase [2], 7.5 nM on B-Raf(V599E) kinase [3] and 730 nM in test [4].
As to `COc1cccc(-n2nc(C(C)(C)C)cc2NC(=O)Nc2ccccc2F)c1` [Example 235, 1-[3-t-butyl-1-(3-methoxy-phenyl)-1H-pyrazol-5-yl]-3-(2-fluorophenyl)urea], the IC50 is 3500 nM at KDR kinase [2], 1040 nM on B-Raf(V599E) kinase [5] and 120 nM in test [4].
`NC(=O)C1CCc2ccc(-n3nc(C4CCCC4)cc3NC(=O)Nc3cccc(Cl)c3Cl)cc21` (stereo not drawn) [Example 305, 1-(1-(3-carbamoyl-2,3-dihydro-1H-inden-5-yl)-3-cyclopentyl-1H-pyrazol-5-yl)-3-(2,3-dichlorophenyl)urea]: the values for the IC50 (against B-Raf(V599E) kinase [5]; in test [4]) were 788 nM and 19 nM, respectively.
Compound `CC(C)(C)c1cc(NC(=O)Nc2cccc(Cl)c2Cl)n(-c2cccc(-c3n[nH]c(=O)o3)c2)n1` [Example 278, 1-(3-t-butyl-1-(3-(5-oxo-4,5-dihydro-1,3,4-oxadiazol-2-yl)phenyl)-1H-pyrazol-5-yl)-3-(2,3-dichlorophenyl)urea] gave an IC50 on B-Raf(V599E) kinase [5] of 153 nM.
For the compound `CC(C)(C)c1cc(NC(=O)Nc2cc(F)cc(F)c2F)n(-c2cc(CC(N)=O)c3ccccc3c2)n1` [Example 85, 1-(1-(4-(2-amino-2-oxoethyl)naphthalen-2-yl)-3-t-butyl-1H-pyrazol-5-yl)-3-(2,3,5-trifluorophenyl)urea], the IC50 was 33 nM on Abl kinase [6] and 219 nM against B-Raf(V599E) kinase [5].
In the case of `CC(C)(C)c1cc(NC(=O)Nc2ccc(Cl)cc2)n(-c2cc(CNC(=O)NS(C)(=O)=O)c3ccccc3c2)n1` [Example 74, 1-{3-t-butyl-1-[1-(methanesulfonylureidoamidomethyl)naphthalen-3-yl]-1H-pyrazol-5-yl}-3-(4-chlorophenyl-1-yl)urea], the IC50 on Abl kinase [6] was determined as 2100 nM; on KDR kinase [2], 2500 nM; against B-Raf(V599E) kinase [5], 934 nM.
With `CNC(=O)c1cc(Oc2ccc(NC(=O)Nc3cc(C(C)(C)C)nn3-c3ccc4nc(N)ccc4c3)cc2)ccn1` [Example 176, 1-(1-(2-aminoquinolin-6-yl)-3-t-butyl-1H-pyrazol-5-yl)-3-(4-(2-(methylcarbamoyl)pyridin-4-yloxy)phenyl)urea], the results for the IC50 on Abl kinase [1] (setting [8]) and at B-Raf(V599E) kinase [5] were 2.8 nM and 44 nM, respectively.
`CNC(=O)C1NCCc2cc(-n3nc(C(C)(C)C)cc3NC(=O)Nc3cccc(Oc4cccnc4)c3)ccc21` (stereo not drawn) [Example 180, 1-(3-t-butyl-1-(1-(methylcarbamoyl)-1,2,3,4-tetrahydroisoquinolin-6-yl)-1H-pyrazol-5-yl)-3-(3-(pyridin-3-yloxy)phenyl)urea]: the IC50 on Abl kinase [1] (setting [8]) is 9 nM; at KDR kinase [2], 7.8 nM; against B-Raf(V599E) kinase [3], 11 nM; in test [4], 65 nM.
For `Cn1c(=O)c(-c2cccc(NC(=O)Nc3cc(C4CCCC4)nn3-c3ccc4c(c3)CCC(=O)N4)c2)cc2cncnc21` [Example 134, 1-(3-cyclopentyl-1-(2-oxo-1,2,3,4-tetrahydroquinolin-6-yl)-1H-pyrazol-5-yl)-3-(3-(8-methyl-7-oxo-7,8-dihydropyrido[2,3-d]pyrimidin-6-yl)phenyl)urea], the IC50 came to 52 nM on Abl kinase [1] (setting [8]) and 41 nM on B-Raf(V599E) kinase [5].
For `Cn1c(=O)c(-c2cccc(NC(=O)Nc3cc(C(C)(C)C)nn3-c3ccc4[nH]ccc4c3)c2)cc2cncnc21` [Example 118, 1-(3-t-butyl-1-(1H-indol-5-yl)-1H-pyrazol-5-yl)-3-(3-(8-methyl-7-oxo-7,8-dihydropyrido[2,3-d]pyrimidin-6-yl)phenyl)urea] the same measures were 11 nM and 23 nM.
Consider `CC(C)(C)c1cc(NC(=O)Nc2cccc(Oc3cccnc3)c2)n(-c2cccc(-c3cccnc3)c2)n1` [Example 277, 1-(3-t-butyl-1-(3-(pyridin-3-yl)phenyl)-1H-pyrazol-5-yl)-3-(3-(pyridin-3-yloxy)phenyl)urea], for which the IC50 on Abl kinase [1] (setting [8]) came to 29 nM; on KDR kinase [2] it was 10 nM; at B-Raf(V599E) kinase [3] it was 11 nM; in test [4], 180 nM.
Turning to `CNC(=O)c1cc(Oc2cccc(NC(=O)Nc3cc(C(C)(C)C)nn3-c3ccc4[nH]c(=O)ccc4c3)c2)ccn1` [Example 157, 1-(3-t-butyl-1-(2-oxo-1,2-dihydroquinolin-6-yl)-1H-pyrazol-5-yl)-3-(3-(2-(methylcarbamoyl)pyridin-4-yloxy)phenyl)urea], the IC50 at Abl kinase [1] (setting [8]) turned out to be 31 nM; at B-Raf(V599E) kinase [5], 40 nM.
Regarding `CC(C)(C)c1cc(NC(=O)Nc2cccc(Oc3cccnc3)c2)n(-c2ccc3ncccc3c2)n1` [Example 55, 1-(3-t-butyl-1-(quinolin-6-yl)-1H-pyrazol-5-yl)-3-(3-(pyridin-3-yloxy)phenyl)urea], the IC50 amounted to 3.5 nM at Abl kinase [1] (setting [8]), 4 nM on KDR kinase [2], 5.4 nM against B-Raf(V599E) kinase [3] and 130 nM in test [4].
Consider `CC(C)(C)c1cc(NC(=O)Nc2cccc(Cl)c2Cl)n(-c2ccc3[nH]ccc3c2)n1` [Example 115, 1-(3-t-butyl-1-(1H-indol-5-yl)-1H-pyrazol-5-yl)-3-(2,3-dichlorophenyl)urea], for which the IC50 on Abl kinase [6] was 170 nM; on KDR kinase [2], 810 nM; at B-Raf(V599E) kinase [5], 979 nM; in test [4], 490 nM.
Regarding `CC(C)(C)c1cc(NC(=O)Nc2cc(F)c(F)cc2F)n(-c2cccc(-c3cccnc3)c2)n1` [Example 275, 1-(3-t-butyl-1-(3-(pyridin-3-yl)phenyl)-1H-pyrazol-5-yl)-3-(2,4,5-trifluorophenyl)urea], on B-Raf(V599E) kinase [5], the IC50 came out at 832 nM.
For the compound `CC(C)(C)c1cc(NC(=O)Nc2cccc(Cl)c2Cl)n(-c2cccc(-c3cn[nH]c3)c2)n1` [Example 50, 1-(1-(3-(1H-pyrazol-4-yl)phenyl)-3-t-butyl-1H-pyrazol-5-yl)-3-(2,3-dichlorophenyl)urea], the IC50 was 380 nM at Abl kinase [6], 52 nM at KDR kinase [7], 168 nM against B-Raf(V599E) kinase [5] and 29 nM in test [4].
Take `CC(C)(C)c1cc(NC(=O)Nc2ccc(-c3cccc4c3CNC4=O)cc2)n(-c2cccc(-c3cn[nH]c3)c2)n1` [Example 51, 1-(1-(3-(1H-pyrazol-4-yl)phenyl)-3-t-butyl-1H-pyrazol-5-yl)-3-(4-(1-oxoisoindolin-4-yl)phenyl)urea]: the IC50 at Abl kinase [1] (setting [8]) was determined as 52 nM; against B-Raf(V599E) kinase [5], 29 nM.
The like results for `CC(C)(C)c1cc(NC(=O)Nc2cccc(Cl)c2Cl)n(-c2ccc3cn[nH]c3c2)n1` [Example 120, 1-(3-t-butyl-1-(1H-indazol-6-yl)-1H-pyrazol-5-yl)-3-(2,3-dichlorophenyl)urea] were, in that order, 5100 nM and 214 nM.
`CC(C)(C)c1cc(NC(=O)Nc2ccc(F)c(F)c2F)n(-c2cc(CC(=O)NCC(O)CO)c3ccccc3c2)n1` (stereo not drawn) [Example 96, 1-(3-t-butyl-1-(4-(2-(2,3-dihydroxypropyl-amino)-2-oxoethyl)naphthalen-2-yl)-1H-pyrazol-5-yl)-3-(2,3,4-trifluorophenyl)urea]: the IC50 worked out at 100 nM at Abl kinase [6], 378 nM against B-Raf(V599E) kinase [5] and 48 nM in test [4].
For the compound `CNC(=O)c1cc(Oc2ccc(NC(=O)Nc3cc(C(C)(C)C)nn3-c3ccc4nc(NC)ccc4c3)cc2)ccn1` [Example 174, 1-(3-t-butyl-1-(2-(methylamino)quinolin-6-yl)-1H-pyrazol-5-yl)-3-(4-(2-(methylcarbamoyl)pyridin-4-yloxy)phenyl)urea], the IC50 came out at 1.8 nM on Abl kinase [1] (setting [8]) and 245 nM at B-Raf(V599E) kinase [5].
For `CC(C)(C)c1cc(NC(=O)Nc2cccc(Oc3cccnc3)c2)n(-c2ccc3c(c2)CC(C(N)=O)NC3)n1` (stereo not drawn) [Example 179, 1-(3-t-butyl-1-(3-carbamoyl-1,2,3,4-tetrahydroisoquinolin-6-yl)-1H-pyrazol-5-yl)-3-(3-(pyridin-3-yloxy)phenyl)urea], the IC50 turned out to be 3 nM on Abl kinase [1] (setting [8]), 6.4 nM on KDR kinase [2], 17 nM against B-Raf(V599E) kinase [3] and 96 nM in test [4].
As for `COc1cccc(-n2nc(C(C)(C)C)cc2NC(=O)Nc2cccc(F)c2F)c1` [Example 236, 1-[3-t-butyl-1-(3-methoxy-phenyl)-1H-pyrazol-5-yl]-3-(2,3-difluorophenyl)urea], the IC50 at KDR kinase [2] amounted to 3500 nM; at B-Raf(V599E) kinase [5] it was 2050 nM; in test [4], 250 nM.
